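Five compound concentrations were applied to cells in 96-well plates for 48 hours; endpoints were derived by simple linear interpolation of the resulting dose-response curve. GI50 marks 50% less growth. Definition used: TGI = concentration required for complete inhibition of growth.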
How the values were obtained:
Experiment in all cases: inhibition of tumour cell growth, NCI panel, 48 h
UACC-257 melanoma = system: UACC-257 melanoma
NCI-H460 lung = system: NCI-H460 lung
SNB-75 CNS = system: SNB-75 CNS
HS 578T breast = system: HS 578T breast
UACC-62 melanoma = system: UACC-62 melanoma
HCT-15 colon = system: HCT-15 colon
UO-31 renal = system: UO-31 renal
KM12 colon = system: KM12 colon
SF-539 CNS = system: SF-539 CNS
CCRF-CEM leukemia = system: CCRF-CEM leukemia

SMILES	TGI (UACC-257 melanoma)	TGI (NCI-H460 lung)	TGI (SNB-75 CNS)	TGI (HS 578T breast)	TGI (UACC-62 melanoma)	TGI (HCT-15 colon)	TGI (UO-31 renal)	GI50 (KM12 colon)	TGI (KM12 colon)	TGI (SF-539 CNS)	TGI (CCRF-CEM leukemia)	GI50 (UACC-257 melanoma)	GI50 (NCI-H460 lung)	GI50 (SNB-75 CNS)	GI50 (HS 578T breast)	GI50 (UACC-62 melanoma)	GI50 (HCT-15 colon)	GI50 (UO-31 renal)	GI50 (SF-539 CNS)	GI50 (CCRF-CEM leukemia)
[Cu+2].[O-]c1ccc2ccccc2c1N=Nc1ccccc1.[O-]c1ccc2ccccc2c1N=Nc1ccccc1	> 100 µM	> 100 µM	> 100 µM	> 100 µM	> 100 µM	> 100 µM	> 100 µM	> 100 µM	> 100 µM	> 100 µM	> 100 µM									
Cn1c(COC(=O)N2CCCCC2)nc2c(N3CCOCC3)nc(-c3ccccc3)nc21	2.67 µM	3.27 µM	2.18 µM	2.91 µM	2.54 µM	0.509 µM	1.45 µM	1.46 µM	3.22 µM	2.61 µM	1.48 µM	1.22 µM	1.58 µM	0.817 µM	0.698 µM	1.27 µM	0.212 µM	0.26 µM	1.33 µM	0.307 µM
CC(C)=CCc1c(O)cc(/C=C/c2cc(O)c3c(c2)C[C@@H]2C(C)(C)[C@H](O)[C@H](O)C[C@@]2(C)O3)cc1O	> 10 µM	> 4.36 µM	0.958 µM	> 2.21 µM	0.325 µM	> 10 µM	4.92 µM	0.59 µM	4.11 µM	2.2 µM	2 µM	2.62 µM	0.00146 µM	< 0.001 µM	< 0.001 µM	0.0462 µM	1.28 µM	< 0.001 µM	0.00532 µM	< 0.001 µM
CC(ONC(=O)c1cc(C(F)(F)F)cc(C(F)(F)F)c1)C(=O)Nc1ccc(Cl)cc1 (centres undefined)	20.1 µM	15 µM	70.7 µM	42.4 µM	14.1 µM	20 µM	21.5 µM	5 µM	29.4 µM	19 µM	5.38 µM	3.83 µM	3.5 µM	15 µM	5.43 µM	3.98 µM	4.98 µM	4.85 µM	4.82 µM	1.09 µM
CCN(CC)c1ccc2c(c1)Oc1nc(N)c(C#N)c(N)c1C2Sc1ccc(SC)cc1 (centres undefined)	6.22 µM	3.69 µM	3.17 µM	7.1 µM	2.96 µM	3.07 µM	2.84 µM	1.66 µM	3.46 µM	3 µM	5.02 µM	3.23 µM	1.8 µM	1.56 µM	2.15 µM	1.48 µM	1.59 µM	1.51 µM	1.64 µM	1.27 µM
COc1cnc2c(c1)C(=O)c1c-2n(CCCn2ccnc2)c(=O)c2cc(Cl)ccc12	1.91 µM	0.271 µM	18.9 µM	> 100 µM	0.204 µM	> 100 µM	2.34 µM	0.238 µM	> 100 µM	0.321 µM	> 100 µM	0.0904 µM	< 0.01 µM	0.219 µM	11.4 µM	0.0283 µM	0.159 µM	0.0264 µM	0.0388 µM	< 0.01 µM
COC(CCP(=O)(c1ccccc1)c1ccccc1)(C(=O)c1ccccc1)c1ccccc1 (centres undefined)	11.8 µM	14 µM	22 µM	23.1 µM	15.1 µM	13.6 µM	16.9 µM	3.06 µM	13.4 µM	21.9 µM	42 µM	3.11 µM	3.43 µM	5.76 µM	4.81 µM	2.39 µM	3.19 µM	2.46 µM	10.2 µM	2.27 µM
COC(=O)CCC(=O)c1c(C)[nH]c(/C=C2\N=C(c3ccc[nH]3)C=C2OC)c1C	6.37 µM	40.9 µM	3.51 µM	4.07 µM	3.49 µM	1.89 µM	0.866 µM	0.36 µM	1.72 µM	3.03 µM	2.37 µM	2.27 µM	6.86 µM	0.971 µM	1.35 µM	1.37 µM	0.292 µM	0.279 µM	1.18 µM	0.199 µM
COc1cccc(/C=N\Nc2ccc([N+](=O)[O-])cn2)c1O	20.6 µM	11 µM	57.2 µM	> 100 µM	8.9 µM	39.7 µM	7.24 µM	6.04 µM	51.5 µM	8.65 µM	38.2 µM	3.19 µM	2.05 µM	8.78 µM	4.52 µM	2.47 µM		1.74 µM	2.93 µM	3.42 µM
O=C1Nc2ccccc2C1Cc1ccccc1 (centres undefined)	> 100 µM	> 100 µM	> 100 µM	> 100 µM	> 100 µM	> 100 µM	> 100 µM		> 100 µM	> 100 µM	> 100 µM									
O=[N+]([O-])c1ccccc1N=Nc1c(O)[nH]c2ccccc12	> 100 µM	> 96.6 µM	68.8 µM	> 100 µM	> 100 µM	> 100 µM	> 52.8 µM		> 100 µM	23.9 µM	> 100 µM									
CCOC(=O)CC1(O)C=CC(=O)C=C1	2.09 µg/mL	3.21 µg/mL	4.38 µg/mL	15.3 µg/mL	1.7 µg/mL	0.596 µg/mL	4.44 µg/mL	0.33 µg/mL	0.738 µg/mL	2.68 µg/mL	7.02 µg/mL	0.883 µg/mL	1.12 µg/mL	1.95 µg/mL	2.13 µg/mL	0.485 µg/mL	0.313 µg/mL	2.41 µg/mL	0.581 µg/mL	0.757 µg/mL
COc1ccc2c(c1)c(C1(c3cn(C)c4ccc(OC)cc34)C(=O)Nc3ccc(F)cc31)cn2C	> 100 µM	14.6 µM	> 100 µM	> 100 µM	56.2 µM	> 100 µM	> 100 µM	5.63 µM	> 100 µM	85.2 µM	> 100 µM	5.28 µM	3.65 µM	3.09 µM	9.01 µM	7.42 µM	5 µM	2.27 µM	15.6 µM	4.56 µM
O=C(O)C1C2CC3C(OC(=O)C31)C2Br (centres undefined)	> 100 µM	> 100 µM	> 100 µM	> 100 µM	> 100 µM	> 100 µM	> 100 µM		> 100 µM	> 100 µM	> 100 µM									
O=C(Nc1ccc(Br)cc1)Nc1n[nH]c2ccccc12	> 100 µM	> 100 µM	> 82.7 µM	> 100 µM	> 100 µM	> 100 µM	> 100 µM	> 76.4 µM	> 100 µM	> 100 µM	> 100 µM	> 100 µM	11.7 µM	34.4 µM	46.8 µM	> 100 µM	17.3 µM	25.8 µM	> 70.9 µM	6.8 µM
COc1cc(-c2[nH]ccc2Cl)oc1C1=C2N=C3C=C2C(C(C)C)C1CCCCCCCC3 (centres undefined)	3.18 µM	1.53 µM	3.18 µM	1.41 µM	1.91 µM	1.86 µM	2.55 µM		2.83 µM	2.46 µM	1.74 µM									
CS(=O)(=O)CCNCc1ccc(-c2ccc3ncnc(Nc4ccc(OCc5cccc(C(F)(F)F)c5)cc4)c3c2)o1	7.49 µM	11.8 µM	> 21.1 µM	> 19.4 µM	9.66 µM	10.6 µM	10.2 µM	5.74 µM	13.2 µM	9.75 µM	> 25 µM	3.79 µM	5.31 µM	8.21 µM	7.02 µM	5.11 µM	4.71 µM	4.34 µM	4.66 µM	6.14 µM
CC(=O)OC1COC(S[As](C)C)C(OC(C)=O)C1OC(C)=O (centres undefined)		14.5 µM	21.7 µM	0.916 µM	1.61 µM	1.36 µM	0.805 µM	1.15 µM	9.24 µM	0.315 µM	0.152 µM	2.61 µM	1.05 µM	3.49 µM	0.344 µM	0.285 µM	0.191 µM	0.102 µM	0.0713 µM	0.0444 µM

— PubChem BioAssay (NCI)
